The EC50 is the concentration that produces a half-maximal response. In general, Ki refers to the equilibrium dissociation constant of an inhibitor or competing ligand from its target.

This note sets out measurements from ChEMBL document CHEMBL1201862, “PubChem BioAssay data set” (2004).

The structures appear in SMILES notation. Active and inactive are the calls of the source.

Type in all cases: functional
Assay [1] can be described thus: NIH-3T3 fibroblast cytotoxicity, dose response, cytotoxicity control, cell-based, fluorescence, Alamar Blue, secondary assay (AID 2327).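 Also: NIH-3T3 mouse fibroblasts cultured with fluconazole at 8 µg/mL.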 A general note: Resazurin is reduced to fluorescent resorufin, in cell work by metabolically active cells.
The target in assay [2] is 5'-AMP-activated protein kinase catalytic subunit alpha-1 (Homo sapiens, UniProt Q13131).
Another assay concerns the target T1, Aurora kinase A (Homo sapiens, UniProt O14965).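 Also: value from the Navigating the Kinome kinase panel profiling, panel entry STK6.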
T1 sequence (O14965 whole entry): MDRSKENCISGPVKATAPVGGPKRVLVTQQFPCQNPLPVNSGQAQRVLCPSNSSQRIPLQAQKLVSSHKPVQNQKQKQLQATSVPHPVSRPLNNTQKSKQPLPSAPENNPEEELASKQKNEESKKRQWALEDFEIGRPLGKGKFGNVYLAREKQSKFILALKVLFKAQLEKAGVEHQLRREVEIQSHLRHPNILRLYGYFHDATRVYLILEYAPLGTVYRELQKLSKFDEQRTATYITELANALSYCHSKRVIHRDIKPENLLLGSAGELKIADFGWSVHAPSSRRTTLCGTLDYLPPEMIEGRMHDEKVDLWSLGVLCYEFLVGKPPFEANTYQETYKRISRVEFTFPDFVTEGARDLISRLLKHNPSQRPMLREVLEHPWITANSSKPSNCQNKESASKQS

For assay [3], the target named is MAP/microtubule affinity-regulating kinase 4 (Homo sapiens, UniProt Q96L34). Description: Navigating the Kinome. Panel member name: MARK4.
Assay [4] has as its target Dual specificity tyrosine-phosphorylation-regulated kinase 3 (Homo sapiens, UniProt O43781).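 Also: measured as one member of a broad kinase panel.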
Assay [5] concerns the target Serine/threonine-protein kinase DCLK1 (Homo sapiens, UniProt O15075).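 Also: affinity for DCLK1 (listed as DCAMKL1) measured as one member of a kinome-wide kinase profiling panel.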
In assay [6] the target is Leucine-rich repeat serine/threonine-protein kinase 2 (Homo sapiens, UniProt Q5S007).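 Also: value from a broad kinome-wide panel profiling study in which LRRK2 was one of the kinases tested.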
Assay [7] deals with Cyclin-dependent kinase 1 (Homo sapiens, UniProt P06493).
In assay [8] the target is Inhibitor of nuclear factor kappa-B kinase subunit epsilon (Homo sapiens, UniProt Q14164). In words: Navigating the Kinome. Panel member name: IKBKE.
Assay [9] has as its target Serine/threonine-protein kinase pim-2 (Homo sapiens, UniProt Q9P1W9).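 Also: value comes from a broad kinase panel profiling study in which PIM2 was one of the panel members.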
In assay [10] the target is Protein kinase C gamma type (Homo sapiens, UniProt P05129).
Assay [11] deals with Dual specificity tyrosine-phosphorylation-regulated kinase 1B (Homo sapiens, UniProt Q9Y463). In words: Navigating the Kinome. Panel member name: DYRK1B.
In assay [12] the target is Serine/threonine-protein kinase N2 (Homo sapiens, UniProt Q16513).
Assay [13] deals with Serine/threonine-protein kinase Nek2 (Homo sapiens, UniProt P51955).
Assay [14] addresses Phosphorylase b kinase gamma catalytic chain, liver/testis isoform (Homo sapiens, UniProt P15735).
The target in assay [15] is RAC-alpha serine/threonine-protein kinase (Homo sapiens, UniProt P31749).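 Also: AKT1 affinity measured as one member of a kinome-wide kinase profiling panel.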
Assay [16] has as its target Glycogen synthase kinase-3 beta (Homo sapiens, UniProt P49841).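 Also: value comes from a broad kinome profiling panel, with GSK3B as the panel member.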
In assay [17] the target is Dual specificity mitogen-activated protein kinase kinase 1 (Homo sapiens, UniProt Q02750). Description: Navigating the Kinome. Panel member name: MAP2K1.
Assay [18] addresses Homeodomain-interacting protein kinase 4 (Homo sapiens, UniProt Q8NE63).
The target in assay [19] is Serine/threonine-protein kinase 17A (Homo sapiens, UniProt Q9UEE5).
For assay [20], the target named is Casein kinase I isoform gamma-1 (Homo sapiens, UniProt Q9HCP0).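 Also: measured as the CSNK1G1 member of a kinome profiling panel.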
A further assay deals with SRSF protein kinase 1 (Homo sapiens, UniProt Q96SB4).
Assay [21] deals with Serine/threonine-protein kinase PLK4 (Homo sapiens, UniProt O00444).
Assay [22] has as its target cAMP-dependent protein kinase catalytic subunit alpha (Homo sapiens, UniProt P17612).
For assay [23], the target named is Mitogen-activated protein kinase 10 (Homo sapiens, UniProt P53779). In words: Navigating the Kinome. Panel member name: MAPK10.
For assay [24], the target named is Serine/threonine-protein kinase D2 (Homo sapiens, UniProt Q9BZL6).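 Also: measured against PRKD2 as one member of a kinome-wide kinase profiling panel.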
Assay [25] has as its target Tyrosine-protein kinase Fyn (Homo sapiens, UniProt P06241).
The next assay concerns the target Misshapen-like kinase 1 (Homo sapiens, UniProt Q8N4C8).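 Also: kinome panel screen with MINK as the panel member.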
Assay [26] has as its target 3-phosphoinositide-dependent protein kinase 1 (Homo sapiens, UniProt O15530).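 Also: value comes from the Navigating the Kinome panel, PDPK1 member.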
In assay [27] the target is Serine/threonine-protein kinase PLK1 (Homo sapiens, UniProt P53350).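 Also: PLK1 measured as one member of a kinome-wide profiling panel.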
In assay [28] the target is Non-receptor tyrosine-protein kinase TYK2 (Homo sapiens, UniProt P29597).

Tyrosine-protein kinase Fyn, sequence (P06241 whole entry): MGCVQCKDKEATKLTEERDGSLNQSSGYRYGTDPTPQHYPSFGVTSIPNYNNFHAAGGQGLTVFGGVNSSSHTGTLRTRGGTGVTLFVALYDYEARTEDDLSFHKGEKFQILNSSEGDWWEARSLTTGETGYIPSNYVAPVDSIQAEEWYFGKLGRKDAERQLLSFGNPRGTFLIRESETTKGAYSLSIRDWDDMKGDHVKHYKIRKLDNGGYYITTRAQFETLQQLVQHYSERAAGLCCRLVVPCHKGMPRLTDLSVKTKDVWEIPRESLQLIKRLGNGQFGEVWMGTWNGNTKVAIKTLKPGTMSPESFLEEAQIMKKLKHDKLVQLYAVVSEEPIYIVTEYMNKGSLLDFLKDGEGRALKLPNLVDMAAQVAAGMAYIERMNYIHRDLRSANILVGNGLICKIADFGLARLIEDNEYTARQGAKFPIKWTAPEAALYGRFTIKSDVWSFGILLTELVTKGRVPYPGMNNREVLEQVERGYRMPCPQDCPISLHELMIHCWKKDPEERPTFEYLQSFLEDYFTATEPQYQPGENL
Casein kinase I isoform gamma-1, sequence (Q9HCP0 whole entry, canonical isoform): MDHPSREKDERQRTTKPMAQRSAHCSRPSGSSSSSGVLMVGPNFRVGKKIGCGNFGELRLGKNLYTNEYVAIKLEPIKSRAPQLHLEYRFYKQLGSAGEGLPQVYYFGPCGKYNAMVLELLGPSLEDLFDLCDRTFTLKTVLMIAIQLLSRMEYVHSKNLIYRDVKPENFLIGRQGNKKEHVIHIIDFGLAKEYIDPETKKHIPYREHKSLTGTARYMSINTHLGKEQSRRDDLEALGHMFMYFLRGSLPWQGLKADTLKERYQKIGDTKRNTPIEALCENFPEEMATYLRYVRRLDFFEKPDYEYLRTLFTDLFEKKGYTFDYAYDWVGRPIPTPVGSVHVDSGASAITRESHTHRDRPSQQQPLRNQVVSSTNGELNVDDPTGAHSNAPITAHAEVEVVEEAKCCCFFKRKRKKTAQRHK
Mitogen-activated protein kinase 10, sequence (P53779 whole entry): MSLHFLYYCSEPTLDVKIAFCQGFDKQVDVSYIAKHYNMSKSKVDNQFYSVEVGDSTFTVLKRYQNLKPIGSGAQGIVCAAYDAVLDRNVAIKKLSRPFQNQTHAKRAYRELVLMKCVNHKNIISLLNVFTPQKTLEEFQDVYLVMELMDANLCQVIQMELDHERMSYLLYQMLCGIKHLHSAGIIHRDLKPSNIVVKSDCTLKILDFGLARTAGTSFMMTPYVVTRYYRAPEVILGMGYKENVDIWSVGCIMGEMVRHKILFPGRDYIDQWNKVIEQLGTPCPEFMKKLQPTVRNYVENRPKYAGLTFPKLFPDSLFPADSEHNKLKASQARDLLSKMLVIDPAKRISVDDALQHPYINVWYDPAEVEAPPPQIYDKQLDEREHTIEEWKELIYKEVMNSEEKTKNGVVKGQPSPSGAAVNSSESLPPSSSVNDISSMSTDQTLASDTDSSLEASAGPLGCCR
Leucine-rich repeat serine/threonine-protein kinase 2, sequence (Q5S007 whole entry): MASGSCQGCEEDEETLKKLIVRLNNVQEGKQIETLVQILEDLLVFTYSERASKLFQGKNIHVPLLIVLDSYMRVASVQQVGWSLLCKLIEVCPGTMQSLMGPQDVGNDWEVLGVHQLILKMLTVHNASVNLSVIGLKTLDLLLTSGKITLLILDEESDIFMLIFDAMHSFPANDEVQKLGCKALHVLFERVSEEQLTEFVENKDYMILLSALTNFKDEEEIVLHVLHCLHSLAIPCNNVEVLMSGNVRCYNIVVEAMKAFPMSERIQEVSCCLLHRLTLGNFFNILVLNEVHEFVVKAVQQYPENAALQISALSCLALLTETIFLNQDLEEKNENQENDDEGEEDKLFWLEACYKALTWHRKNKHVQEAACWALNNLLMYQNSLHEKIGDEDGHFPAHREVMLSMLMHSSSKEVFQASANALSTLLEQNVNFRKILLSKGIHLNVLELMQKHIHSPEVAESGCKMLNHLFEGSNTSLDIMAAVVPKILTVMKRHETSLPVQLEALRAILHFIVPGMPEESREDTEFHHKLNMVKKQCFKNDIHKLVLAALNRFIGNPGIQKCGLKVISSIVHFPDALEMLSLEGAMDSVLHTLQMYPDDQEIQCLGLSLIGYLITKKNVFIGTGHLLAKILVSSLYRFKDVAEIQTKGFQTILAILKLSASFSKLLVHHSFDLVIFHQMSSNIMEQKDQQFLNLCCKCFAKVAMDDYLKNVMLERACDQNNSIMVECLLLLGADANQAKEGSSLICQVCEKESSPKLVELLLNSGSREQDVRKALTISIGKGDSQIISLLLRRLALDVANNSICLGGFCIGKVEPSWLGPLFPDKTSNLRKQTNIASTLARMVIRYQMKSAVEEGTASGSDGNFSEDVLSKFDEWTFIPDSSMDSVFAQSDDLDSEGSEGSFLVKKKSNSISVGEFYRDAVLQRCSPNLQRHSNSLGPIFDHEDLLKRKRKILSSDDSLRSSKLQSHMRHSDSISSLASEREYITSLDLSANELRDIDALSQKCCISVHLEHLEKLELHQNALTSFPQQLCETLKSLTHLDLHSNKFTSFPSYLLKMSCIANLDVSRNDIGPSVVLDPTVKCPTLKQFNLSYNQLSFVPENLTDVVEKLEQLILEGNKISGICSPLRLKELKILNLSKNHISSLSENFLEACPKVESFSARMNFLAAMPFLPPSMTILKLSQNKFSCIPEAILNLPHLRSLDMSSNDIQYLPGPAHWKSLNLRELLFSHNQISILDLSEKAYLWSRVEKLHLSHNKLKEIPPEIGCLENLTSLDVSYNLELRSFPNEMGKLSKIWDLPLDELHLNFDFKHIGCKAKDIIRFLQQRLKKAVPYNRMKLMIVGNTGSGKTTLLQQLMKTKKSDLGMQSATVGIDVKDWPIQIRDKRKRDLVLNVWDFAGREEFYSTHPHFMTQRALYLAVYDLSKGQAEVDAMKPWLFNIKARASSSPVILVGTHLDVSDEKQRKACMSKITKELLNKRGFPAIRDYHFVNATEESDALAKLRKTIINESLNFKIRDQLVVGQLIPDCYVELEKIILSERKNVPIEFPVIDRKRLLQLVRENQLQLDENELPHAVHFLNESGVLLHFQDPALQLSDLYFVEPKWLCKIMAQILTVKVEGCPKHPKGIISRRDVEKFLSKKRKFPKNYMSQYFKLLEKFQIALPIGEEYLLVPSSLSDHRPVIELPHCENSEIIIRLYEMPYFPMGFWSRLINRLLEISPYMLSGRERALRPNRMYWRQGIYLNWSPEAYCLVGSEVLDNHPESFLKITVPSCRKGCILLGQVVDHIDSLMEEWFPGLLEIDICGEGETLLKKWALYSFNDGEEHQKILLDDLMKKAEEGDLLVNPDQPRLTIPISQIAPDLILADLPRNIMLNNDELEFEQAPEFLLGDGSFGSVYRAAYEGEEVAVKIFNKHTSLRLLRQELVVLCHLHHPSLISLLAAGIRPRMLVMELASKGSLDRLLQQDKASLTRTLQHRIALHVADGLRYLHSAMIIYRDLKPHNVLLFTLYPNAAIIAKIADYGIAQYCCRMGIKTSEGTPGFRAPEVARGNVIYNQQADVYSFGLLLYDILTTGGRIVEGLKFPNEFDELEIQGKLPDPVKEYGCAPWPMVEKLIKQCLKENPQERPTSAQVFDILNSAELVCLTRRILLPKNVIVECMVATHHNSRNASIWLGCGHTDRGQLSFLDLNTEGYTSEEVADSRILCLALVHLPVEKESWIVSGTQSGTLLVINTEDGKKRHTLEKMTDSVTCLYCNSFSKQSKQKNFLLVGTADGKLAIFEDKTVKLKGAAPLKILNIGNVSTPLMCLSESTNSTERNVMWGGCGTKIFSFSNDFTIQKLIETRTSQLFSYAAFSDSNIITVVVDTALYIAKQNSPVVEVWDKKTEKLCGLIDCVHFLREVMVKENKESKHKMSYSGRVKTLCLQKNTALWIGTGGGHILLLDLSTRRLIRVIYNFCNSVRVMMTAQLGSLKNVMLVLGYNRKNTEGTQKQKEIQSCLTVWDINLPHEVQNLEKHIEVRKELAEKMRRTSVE
Serine/threonine-protein kinase D2, sequence (Q9BZL6 whole entry): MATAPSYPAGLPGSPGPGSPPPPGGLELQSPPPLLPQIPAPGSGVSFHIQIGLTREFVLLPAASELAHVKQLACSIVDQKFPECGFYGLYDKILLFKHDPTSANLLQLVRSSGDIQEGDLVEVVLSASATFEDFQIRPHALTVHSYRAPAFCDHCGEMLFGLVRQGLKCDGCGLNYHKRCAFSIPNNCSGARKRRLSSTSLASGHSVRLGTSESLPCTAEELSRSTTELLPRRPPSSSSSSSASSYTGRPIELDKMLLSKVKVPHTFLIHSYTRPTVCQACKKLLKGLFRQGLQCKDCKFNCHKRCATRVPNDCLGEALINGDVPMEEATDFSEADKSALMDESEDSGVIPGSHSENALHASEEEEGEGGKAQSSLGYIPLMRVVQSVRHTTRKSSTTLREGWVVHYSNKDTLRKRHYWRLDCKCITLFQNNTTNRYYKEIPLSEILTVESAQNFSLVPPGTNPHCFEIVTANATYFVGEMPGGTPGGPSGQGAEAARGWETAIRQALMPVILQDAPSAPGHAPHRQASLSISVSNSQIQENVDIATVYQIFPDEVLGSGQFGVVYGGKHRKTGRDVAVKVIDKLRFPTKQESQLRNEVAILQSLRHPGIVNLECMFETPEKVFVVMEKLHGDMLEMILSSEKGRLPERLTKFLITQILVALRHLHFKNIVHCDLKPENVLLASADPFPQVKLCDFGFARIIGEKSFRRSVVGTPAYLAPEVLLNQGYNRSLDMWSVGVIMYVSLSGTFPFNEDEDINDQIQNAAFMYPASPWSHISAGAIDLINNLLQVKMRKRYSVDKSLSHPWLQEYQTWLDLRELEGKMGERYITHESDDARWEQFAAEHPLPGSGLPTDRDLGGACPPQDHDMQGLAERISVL

As for `CCCn1nc([N+](=O)[O-])c(C(C#N)c2nc3ccccc3s2)c(Cl)c1=O` (stereo unspecified), the EC50 in [1] was > 160000 nM (inactive).

For `NCCCn1cc(-c2cc(-c3cc4ccccc4s3)c3[nH]ncc3c2)c2nc(N)ncc21`, the inhibitory constant (Ki) is 794 nM (active) in assay [2]; > 1580 nM (inactive) on Aurora kinase A; 7.94 nM (active) in assay [3]; 100 nM (active) in assay [4]; 2510 nM (active) in assay [5]; 251 nM (active) in [6]. Moreover, the Ki in assay [7] is 31.6 nM (active); in assay [8] it was > 3160 nM (inactive); in [9], 100 nM (active); in assay [10], 200 nM (active); in assay [11] it was 631 nM (active); in [12], 316 nM (active). Further, the Ki in assay [13] was > 10000 nM (inactive); in assay [14], 126 nM (active); in assay [15], 251 nM (active); in assay [16], 316 nM (active); in assay [17] it was > 3160 nM (inactive); in [18], 501 nM (active). In addition, the Ki in assay [19] is 39.8 nM (active); in [20], 2510 nM (active); at SRSF protein kinase 1 it was 2000 nM (active); in assay [21] it was 63.1 nM (active); in [22], 39.8 nM (active); in [23], > 3160 nM (inactive). Further, the Ki in [24] was 50.1 nM (active); in assay [25], > 3160 nM (inactive); at Misshapen-like kinase 1 it was 100 nM (active); in [26], 1.58 nM (active); in assay [27] it was > 7940 nM (inactive); in assay [28] it was > 2000 nM (inactive).
